From PubChem BioAssay (NCI)
“And” between values parts separate entries of the source, which are not always exact repeats. Equal entries are not always repeated.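 Cultured in 96-well plates, cells were exposed to test compound for 48 hours across five concentrations. The concentration for 50% growth inhibition is given as GI50. Definition used: TGI = concentration required for complete inhibition of growth.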

Legend:
Test in all cases: NCI anticancer screen, dose series, 48 h
SK-OV-3 ovarian = test system: SK-OV-3 ovarian
LOX IMVI melanoma = test system: LOX IMVI melanoma
RPMI-8226 leukemia = test system: RPMI-8226 leukemia
HOP-92 NSCLC = test system: HOP-92 NSCLC
EKVX NSCLC = test system: EKVX NSCLC
A549 NSCLC = test system: A549 NSCLC
SNB-19 CNS = test system: SNB-19 CNS
HCT-15 colon = test system: HCT-15 colon
NCI-H460 lung = test system: NCI-H460 lung
OVCAR-3 ovarian = test system: OVCAR-3 ovarian

SMILES	GI50 (SK-OV-3 ovarian) [µM]	TGI (SK-OV-3 ovarian) [µM]	GI50 (LOX IMVI melanoma) [µM]	TGI (LOX IMVI melanoma) [µM]	GI50 (RPMI-8226 leukemia) [µM]	TGI (RPMI-8226 leukemia) [µM]	GI50 (HOP-92 NSCLC) [µM]	TGI (HOP-92 NSCLC)	GI50 (EKVX NSCLC) [µM]	TGI (EKVX NSCLC) [µM]	GI50 (A549 NSCLC) [µM]	TGI (A549 NSCLC) [µM]	GI50 (SNB-19 CNS) [µM]	TGI (SNB-19 CNS) [µM]	GI50 (HCT-15 colon) [µM]	TGI (HCT-15 colon)	GI50 (NCI-H460 lung) [µM]	TGI (NCI-H460 lung)	GI50 (OVCAR-3 ovarian) [µM]	TGI (OVCAR-3 ovarian) [µM]
COc1cc2c(c(Br)c1N)-c1cc(Br)c(N)cc1C2=O	11.3	> 73.5	> 100	> 100	> 100	> 100	2.98	> 100 µM	9.99	> 100	> 89.9	> 100	> 100	> 100	> 100	> 100 µM	3.21	> 100 µM	> 100	> 100
CCN1CCC(O)(c2ccccc2)C(C(=O)c2ccccc2)C1 (stereo not drawn)	–	> 100	–	> 31.6	–	33.4	–	36.1 µM	–	> 76.4	–	> 100	–	> 100	–	> 61.2 µM	–	> 100 µM	–	31.2
O=C(O)Cc1ccccc1	> 1000	> 2000	> 1000	> 2000	–	1420	> 1000	> 1000 µM and 1250 µM	> 1000	> 2000	> 1000	> 2000	> 1000	> 2000	> 1000	> 1000 µM and 1710 µM	> 1000	> 1000 µM and 933 µM	–	> 2000
O=c1[nH]cnc2c1nnn2C1C=C(CO)C(O)C1O (stereo not drawn)	–	> 100	–	81.5	–	> 100	–	> 100 µM	–	> 100	–	> 100	–	> 100	–	> 100 µM	–	> 100 µM	–	> 100
O=C(Nc1ccc(Cl)cc1)C(=O)C1=C(O)c2ccccc2OC1	–	> 100	–	> 100	–	> 100	–	> 100 µM	–	> 100	–	> 100	–	> 100	–	> 100 µM	–	> 100 µM	–	> 100
Cc1cc2c(C)nn(Cc3ccc(Cl)cc3Cl)c2c(C#N)c1C	–	> 100	–	> 100	–	> 100	–	92.6 µM	–	> 100	–	> 100	–	> 100	–	> 100 µM	–	> 100 µM	–	> 100
C[CH2][Sn]([CH2]C)([O]C(=O)c1cc(OC)c(OC)c(OC)c1)[O][Sn]([CH2]C)([CH2]C)[O]C(=O)c1cc(OC)c(OC)c(OC)c1	> 100	> 100	18.5	33.2	28.7	> 100	19.6	36.9 µM	> 53.9	> 94.8	> 100	> 100	> 75.1	> 100	43	> 79 µM	> 100	> 100 µM	> 64.4	> 100
CCOC(=O)C12CN(C34CC5CC(CC(C5)C3)C4)CC(C(=O)OCC)(C1=O)C(c1ccccc1)OC2c1ccccc1 (stereo not drawn)	–	> 100	–	> 100	–	> 100	–	9.73 µM	–	> 100	–	> 100	–	> 100	–	> 100 µM	–	> 100 µM	–	> 100
COC(=O)C1(C)CCc2c(ccc3ccccc23)C1=O (stereo not drawn)	–	> 100	–	> 100	–	60.6	–	> 100 µM	–	> 100	–	> 100	–	> 100	–	> 100 µM	–	> 100 µM	–	> 100
